According to patent US20110112132A1, “MEANS FOR THE TREATMENT OF ACUTE AND CHRONIC DISORDERS OF CEREBRAL CIRCULATION, INCLUDING INSULT, BASED ON HYDROGENATED PYRIDO (4,3-B) INDOLES (VARIANTS), PHARMACOLOGICAL MEANS BASED THEREON AND METHOD FOR THE USE THEREOF” (Medivation Neurology, Inc., priority 2006, published 2011):
Counter-ions that a name gives are not always drawn. Marks after values point to notes of the source that are not given here.

Key:
[1] = system: rats with hemorrhagic insult; assay: Intracerebral post-traumatic hematoma (hemorrhagic insult) model: neurological deficit, McGraw Stroke index; type: in vivo, rat
Protocol: (§1) The study was performed in accordance with the “Methodological instructions for the experimental study of preparations for the treatment of cerebral circulation and migraine,” in “Handbook on the experimental (preclinical) study of new pharmacological substances,” Meditsina, Moscow, 2005, pp. 332-338, as modified by A. N. Makarenko et al. (“Method for modeling local hemorrhage in various brain structures in experimental animals,” Zh. vyssh. nervn. deyat. (2002) 52(6):765-768).
The experiments were performed on cross-bred male white rats weighing 200-250 g, kept in a vivarium with free access to food (standard pelleted feed) and water, and with natural alternation of day and night. Using a special device (mandrin-knife) and stereotaxis, brain tissue of rats anesthetized with nembutal (40 mg/kg, i/m) was destroyed in the region of the capsule interna, with subsequent (after 2-3 minutes) introduction into the damage site of blood taken from under the rat's tongue (0.02-0.03 ml). Scalping and trepanning of the skull were performed on sham-operated animals.
(§2) The animals were divided into 4 groups: sham-operated, a group of animals with hemorrhagic insult, animals with hemorrhagic insult which received dimebon intraperitoneally at a dose of 0.1 mg/kg, and animals with hemorrhagic insult which received nimodipine intraperitoneally at a dose of 0.1 mg/kg. The effects of the substances were recorded 24 hours, and 3, 7 and 14 days after operation.
Dimebon and nimodipine were administered intraperitoneally to animals with insult in an identical dose of 0.1 mg/kg 3-3.5 hours after operation, and then daily for 14 days after operation. An equal volume of physiological saline was administered intraperitoneally to the control groups of animals at identical intervals. Each group consisted of 9-18 animals at the start of the experiment.
The neurological deficit in the animals was determined using the McGraw Stroke index as modified by I. V. Gannushkina (Functional angioarchitectonics of the brain (1977) (Moscow, Meditsina) p. 224). The severity of the condition was determined from the sum of the corresponding scores. The number of rats with mild symptoms up to 2.5 points on the Stroke-index scale (sluggish movements, limb weakness, unilateral hemiptosis, tremor, circular movements) and with severe manifestations of neurological impairment (from 3 to 10 points)—limb paresis, paralysis of lower limbs, lateral position, was noted.

[2] = system: rats with cerebral ischemia induced by ligation of the carotid arteries; assay: Rat brain ischemia by ligation of the carotid arteries: neurological deficit, McGraw Stroke index; type: in vivo; settings: 0.1 mg/kg i.p.
Protocol: Rat brain ischemia, produced by irreversible occlusion of the carotid arteries, was performed in accordance with “Methodological instructions for the experimental study of preparations for the treatment of cerebral circulation and migraine,” in “Handbook on the experimental (preclinical) study of new pharmacological substances,” Meditsina, Moscow, 2005, pp. 332-338.
Experiments were performed on cross-bred male white rats weighing 200-250 g, anesthetized with chloral hydrate (350 mg/kg, i/p). Irreversible single-step bilateral ligation of the common carotid arteries was performed on the animals. In the group of sham-operated animals, the ligatures were applied to the vessels but were not tightened.
After completing the operation, the animals were divided randomly into groups: group one rats were given dimebon intraperitoneally at 0.1 mg/kg administered 30 minutes after the ligature was tied, then daily for 14 days after operation; group two rats were given nimodipine intraperitoneally at 0.1 mg/kg administered 30 minutes after the ligature was tied, then daily for 14 days after operation. Group one and group two animals were experiencing an acute cerebral circulation disturbance at the time of drug administration. Control group and sham-operated animals were given equivalent volumes of physiological saline (0.9% sodium chloride) at the same times.
Neurological deficit in animals with cerebral ischemia induced by ligation of the carotid arteries was determined using the McGraw Stroke index as modified by I. V. Gannushkina (Functional angioarchitectonics of the brain (1977) (Moscow, Meditsina) p. 224). The severity of the condition was determined from the sum of the corresponding scores. The number of rats with mild symptoms up to 2.5 points on the Stroke-index scale (sluggish movements, limb weakness, hemiptosis, tremor, circular movements) and with severe manifestations of neurological impairment (from 3 to 10 points)—limb paresis, paralysis of lower limbs, lateral position, was noted.

NMDA receptors = settings: rat brain neurons; cited from earlier work
AMPA receptors = settings: rat brain neurons; cited from earlier work
[3] = system: rats with hemorrhagic insult; assay: Intracerebral post-traumatic hematoma (hemorrhagic insult) model: death of animals; type: in vivo, rat; settings: 0.1 mg/kg i.p.; entire period of observation
Protocol: as §1
The experiments were performed on cross-bred male white rats weighing 200-250 g, kept in a vivarium with free access to food (standard pelleted feed) and water, and with natural alternation of day and night. […]
as §2, with “operation. […]” for “operation.”
Rat deaths were recorded over the entire 14 day period of observation. […]

[4] = 24 hours after operation (hemorrhagic insult), 0.1 mg/kg i.p.
[5] = 14 days after operation (hemorrhagic insult), 0.1 mg/kg i.p. daily

Row | Compound | Number of animals with circular movements [1, 4] | Number of animals with limb weakness [1, 4] | Number of animals with paresis of 1-4 limbs [1, 4] | Number of animals with sluggish, slow movements [1, 4] | Number of animals with circular movements [1, 5] | Number of animals with limb weakness [1, 5] | Number of animals with paresis of 1-4 limbs [1, 5] | Number of animals with sluggish, slow movements [1, 5] | Number of animals with bilateral hemiptosis ([2]; 1 day after ischemic insult) | Number of animals with limb weakness ([2]; 1 day after ischemic insult) | Number of animals with sluggish, slow movements ([2]; 1 day after ischemic insult) | Number of animals with unilateral hemiptosis ([2]; 1 day after ischemic insult) | Number of animals with bilateral hemiptosis ([2]; 3 days after ischemic insult) | Number of animals with limb weakness ([2]; 3 days after ischemic insult) | Number of animals with sluggish, slow movements ([2]; 3 days after ischemic insult) | Number of animals with unilateral hemiptosis ([2]; 3 days after ischemic insult) | Number of animals with bilateral hemiptosis ([2]; 7 days after ischemic insult) | Number of animals with limb weakness ([2]; 7 days after ischemic insult) | Number of animals with sluggish, slow movements ([2]; 7 days after ischemic insult) | Number of animals with unilateral hemiptosis ([2]; 7 days after ischemic insult) | further results
1 | Cc1ccc2c(c1)c1c(n2CCc2ccc(C)nc2)CCN(C)C1 [dimebon, 2,8-dimethyl-5-[2-(6-methyl-pyridyl-3-)ethyl]2,3,4,5-tetrahydro-1H-pyrido[4,3-b]indole dihydrochloride] | 33% | 66% | 33% | 88% | 0% | 7% | 0% | 7% | 33.3* % | 16.7% | 33.3* % | 16.7% | 25.0* % | 16.7% | 33.3% | 0% | 9.1* % | 9.1% | 9.1* % | 0% | Effect on number of animals with pareses after hemorrhagic insult, in words ([1]; 0.1 mg/kg i.p., first day of observation): almost halving the number of animals with pareses; Effect on neurological deficit in rats with ischemia, in words ([2]; first and particularly seventh day after operation): prevented the development of neurological deficit; Number of animals with bilateral hemiptosis ([2]; 14 days after ischemic insult): 0%; Number of animals with limb weakness ([2]; 14 days after ischemic insult): 0%; Number of animals with sluggish, slow movements ([2]; 14 days after ischemic insult): 0%; Number of animals with unilateral hemiptosis ([2]; 14 days after ischemic insult): 0%; Number of animals with unilateral ptosis ([2]; 14 days after ischemic insult): 0%; Effect on NMDA receptors, in words (NMDA receptors): blocks the NMDA receptors; Effect on transmembrane currents induced by the activation of AMPA receptors, in words (AMPA receptors): potentiates the transmembrane currents; Effect on death of animals after hemorrhagic insult, in words [3]: almost completely prevented the death of animals
2 | COCCOC(=O)C1=C(C)NC(C)=C(C(=O)OC(C)C)C1c1cccc([N+](=O)[O-])c1 (stereo not shown) [nimodipine, reference compound] | 25% | 50% | 25* % | 50% | 0% | 0% | 0* % | 16.6% | 50% | 20% | 50% | 20% | 20* % | 0% | 30% | 20% | 20* % | 10% | 0% | 0% | Number of animals with bilateral hemiptosis ([2]; 14 days after ischemic insult): 0%; Number of animals with limb weakness ([2]; 14 days after ischemic insult): 0%; Number of animals with sluggish, slow movements ([2]; 14 days after ischemic insult): 0%; Number of animals with unilateral hemiptosis ([2]; 14 days after ischemic insult): 0%; Number of animals with unilateral ptosis ([2]; 14 days after ischemic insult): 0%
